Measurements taken from patent US5093475A (priority 1989, dated 1992).
Structures can show the parent of a compound that is named as a salt. Marks after values point to notes of the source that are not given here.

Tests used:
[1] = Hydrolysis of the 2-iminothiolane rings in PBS (pH 7.2), monitored at 248nm; format: physicochemical; conditions: 25° C.
Source text: a. The rate of hydrolysis of the 2-iminothiolane rings in PBS (pH 7.2), monitored at 248nm.

[2] = Rate of reaction of the 2-iminothiolanes with glycine, coupled with DTNB, 412nm; format: physicochemical; conditions: 160 mM glycine, 0.5 mM DTNB, PBS pH 7.2; 25° C.
Experimental: b. The rate of reaction of the 2-iminothiolanes with 160 mM glycine in PBS (pH 7.2), monitored by coupling the reaction with 0.5 mM DTNB and following the change in absorbance at 412nm.

[3] = test system: 791 mAb; assay: Rate of reaction of the 2-iminothiolanes with 791 mAb, coupled with DTNB, 412nm; conditions: 0.5 mM 2-iminothiolane, 20 μM 791 mAb, 2.5 mM DTNB, pH 7.5; 25° C.
Experimental: c. The rate of reaction of the 2-iminothiolanes (0.5 mM) with 791 mAb (20 μM), as monitored by coupling the reaction with 2.5 mM DTNB in 0.1 M NaPO4, 0.1 M NaCl, pH 7.5, and monitoring the change in absorbance at 412nm.

[4] = Glutathione-induced TNB release from 791/iminothiolane/TNB (disulfide stability); format: physicochemical; conditions: for Reaction rate, TNB, k × 10^5 (initial rate of TNB release from 791/linker/TNB): ca. 10 μM protein-S-S-TNB, 200 μM glutathione, PBS, 0.5 mM EDTA, pH 7.25, 25° C.; for Increase in Disulfide Stability Relative to: 2IT / Increase in Disulfide Stability Relative to: SPDP: ratio of TNB release rate constants; for Increase in Disulfide Stability Relative to: SPDP: vs 791/SPDP/TNB
Experimental: d. The initial rate of TNB release from 791/iminothiolane/TNB induced by glutathione. Samples contained ca. 10 μM of protein-S-S-TNB and 200 μM of glutathione in PBS containing 0.5 mM EDTA, pH 7.25, and were monitored at 412nm. FIG. 1 presents the results graphically.
The relative increase in disulfide stability was also compared to 791/SPDP/TNB, and was determined as for 2IT.
791/SPDP/TNB was prepared by derivatizing 791 mAb with SPDP following conventional procedures and conditions, removing any byproducts by gel filtration, releasing the PDP group with 1 mM DTT, and then reacting the liberated sulfhydryl with DTNB. Following gel filtration, the rate of TNB release was measured as in Example 19d above.

[5] = Thorpe et al., Cancer Res. 47:5924-5931, 1987; cited from earlier work
[6] = cited from earlier work

Compound	Reaction rate, Hydrolysis [1] [%/hr]	Reaction rate, Glycine, k × 10^3 [2]	Reaction rate, 791, k × 10^5 [3]	rate constant for unsubstituted 2-iminothiolane ([4]; TNB release from 791/linker/TNB by glutathione)	Reaction rate, TNB, k × 10^5 (initial rate of TNB release from 791/linker/TNB) [4]	Increase in Disulfide Stability Relative to: 2IT [4]	Increase in Disulfide Stability Relative to: SPDP [4]	stability of disulfide bond in vivo, in words [5]	solubility in water, in words (background) [6]
Cl.N=C1CCCS1 [Compound 2IT, 2-iminothiolane hydrochloride, reference compound]	10.2	5.3 s^-1 (k × 10^3)	5.0 s^-1 (k × 10^5)	9.42×10^-3	942.0 s^-1 (k × 10^5)	1.0	0.3	unstable in vivo	–
CC(SS(=O)(=O)O)c1ccc(C(=O)ON2C(=O)CCC2=O)cc1 (stereo not drawn) [SMBT, sodium S-4-succinimidyloxycarbonyl-α-methyl benzyl thiosulfate]	–	–	–	–	–	–	–	appear to have more stable disulfide linkages in vivo	low solubility in water
CC(SSc1ccccn1)c1ccc(C(=O)ON2C(=O)CCC2=O)cc1 (stereo not drawn) [SMPT, 4-succinimidyloxycarbonyl-α-methyl-α-(2-pyridyldithio)-toluene]	–	–	–	–	–	–	–	appear to have more stable disulfide linkages in vivo	low solubility in water
O=C(CCSSc1ccccn1)ON1C(=O)CCC1=O [SPDP, N-succinimidyl-3-(2-pyridyldithio)propionate, reference compound]	–	–	–	–	–	3.6	1.0	unstable in vivo	–
CC1(C)CCC(=N)S1.Cl [dimethyl-2IT, 5,5-Dimethyl-2-iminothiolane hydrochloride]	6.9	3.5 s^-1 (k × 10^3)	4.6 s^-1 (k × 10^5)	–	0.13 s^-1 (k × 10^5)	7246.0	2046.0	–	–
CC1CCC(=N)S1.Cl (stereo not drawn) [methyl-2IT, 5-Methyl-2-iminothiolane hydrochloride]	5.4	4.8 s^-1 (k × 10^3)	4.0 s^-1 (k × 10^5)	–	75.3 s^-1 (k × 10^5)	12.5	3.5	–	–
Cl.N=C1CCC(c2ccccc2)S1 (stereo not drawn) [phenyl-2IT, 5-Phenyl-2-iminothiolane hydrochloride]	1.5	5.2 s^-1 (k × 10^3)	8.8 s^-1 (k × 10^5)	–	45.8 s^-1 (k × 10^5)	20.6	5.8	–	–
N=C1CC2CCCCC2S1 (stereo not drawn) [ring-2IT, hydrochloride]	13.4	3.4 s^-1 (k × 10^3)	5.6 s^-1 (k × 10^5)	–	82.1 s^-1 (k × 10^5)	11.5	3.2	–	–
Cl.N=C1CCC2(CCCCC2)S1 [spiro-2IT, 2-Imino-1-thiaspiro[4.5]decane hydrochloride]	5.6	3.0 s^-1 (k × 10^3)	4.6 s^-1 (k × 10^5)	–	0.11 s^-1 (k × 10^5)	8564.0	2418.0	–	–
CC(C)(C)C1CCC(=N)S1.Cl (stereo not drawn) [t-butyl-2IT, 5-t-Butyl-2-iminothiolane hydrochloride]	6.1	4.4 s^-1 (k × 10^3)	7.4 s^-1 (k × 10^5)	–	16.4 s^-1 (k × 10^5)	57.4	16.2	–	–
